Source: publication PMC11062922 (Nature Chemical Biology, 2023)
“And” between values parts separate entries of the source, which are not always exact repeats. Equal entries are not always repeated. Where two headings read alike, the source gives them in different places.

Legend:
[1] = molecular target: T1, MOB1A (Homo sapiens, UniProt Q9H8S9); assay: Kinobeads full dose-response competition binding: MOB1A; settings: Gene Name MOB1A
T1 construct: to maximize the representation of endogenous proteins; endogenous in cells
T1 sequence (Q9H8S9 2-216 limits assumed): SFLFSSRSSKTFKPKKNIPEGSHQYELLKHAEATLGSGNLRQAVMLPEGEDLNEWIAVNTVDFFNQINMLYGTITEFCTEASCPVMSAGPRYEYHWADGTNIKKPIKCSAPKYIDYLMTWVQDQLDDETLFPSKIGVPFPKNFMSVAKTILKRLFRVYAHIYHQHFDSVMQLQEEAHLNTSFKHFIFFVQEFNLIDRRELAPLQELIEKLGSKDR
T1 sequence (O95835 1-1130 partner): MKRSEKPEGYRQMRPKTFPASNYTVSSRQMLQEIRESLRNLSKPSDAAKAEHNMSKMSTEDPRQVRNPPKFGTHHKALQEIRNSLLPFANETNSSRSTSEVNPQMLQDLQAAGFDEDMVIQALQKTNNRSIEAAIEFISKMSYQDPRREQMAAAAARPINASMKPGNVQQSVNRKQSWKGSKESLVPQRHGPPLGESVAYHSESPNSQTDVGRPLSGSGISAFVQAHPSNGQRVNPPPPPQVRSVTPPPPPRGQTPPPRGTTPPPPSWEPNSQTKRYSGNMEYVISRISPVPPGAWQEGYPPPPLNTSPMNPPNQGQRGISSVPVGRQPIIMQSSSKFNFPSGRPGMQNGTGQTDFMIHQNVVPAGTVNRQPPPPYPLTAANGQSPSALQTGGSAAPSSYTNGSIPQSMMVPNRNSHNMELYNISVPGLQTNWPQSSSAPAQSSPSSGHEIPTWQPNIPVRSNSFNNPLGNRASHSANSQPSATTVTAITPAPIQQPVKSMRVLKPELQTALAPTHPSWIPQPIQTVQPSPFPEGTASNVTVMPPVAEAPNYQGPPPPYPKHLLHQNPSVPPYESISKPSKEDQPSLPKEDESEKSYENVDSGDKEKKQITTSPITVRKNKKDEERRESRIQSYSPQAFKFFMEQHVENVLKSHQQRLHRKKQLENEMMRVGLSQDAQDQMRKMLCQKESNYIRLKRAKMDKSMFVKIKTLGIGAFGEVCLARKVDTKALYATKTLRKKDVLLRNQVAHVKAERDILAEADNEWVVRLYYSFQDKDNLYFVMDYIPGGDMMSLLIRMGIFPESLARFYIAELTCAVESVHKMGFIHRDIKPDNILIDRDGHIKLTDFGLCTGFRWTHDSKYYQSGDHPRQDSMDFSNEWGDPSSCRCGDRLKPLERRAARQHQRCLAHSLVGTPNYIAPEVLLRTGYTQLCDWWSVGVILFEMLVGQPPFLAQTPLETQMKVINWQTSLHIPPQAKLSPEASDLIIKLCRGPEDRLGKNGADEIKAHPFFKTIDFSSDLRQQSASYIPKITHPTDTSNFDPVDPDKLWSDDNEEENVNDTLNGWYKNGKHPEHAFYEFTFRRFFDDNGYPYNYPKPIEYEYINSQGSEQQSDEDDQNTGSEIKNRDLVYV

[2] = molecular target: T2, EPHB4 (Homo sapiens, UniProt P54760); assay: Kinobeads two-dose competition binding: EPHB4; settings: read-out: Lestaurtinib Drugmatrix value, Gene Name EPHB4; target EPHB4; each column = one Lestaurtinib control replicate (batch_R1-R3)
T2 construct: endogenous in cells
T2 sequence (P54760 16-987): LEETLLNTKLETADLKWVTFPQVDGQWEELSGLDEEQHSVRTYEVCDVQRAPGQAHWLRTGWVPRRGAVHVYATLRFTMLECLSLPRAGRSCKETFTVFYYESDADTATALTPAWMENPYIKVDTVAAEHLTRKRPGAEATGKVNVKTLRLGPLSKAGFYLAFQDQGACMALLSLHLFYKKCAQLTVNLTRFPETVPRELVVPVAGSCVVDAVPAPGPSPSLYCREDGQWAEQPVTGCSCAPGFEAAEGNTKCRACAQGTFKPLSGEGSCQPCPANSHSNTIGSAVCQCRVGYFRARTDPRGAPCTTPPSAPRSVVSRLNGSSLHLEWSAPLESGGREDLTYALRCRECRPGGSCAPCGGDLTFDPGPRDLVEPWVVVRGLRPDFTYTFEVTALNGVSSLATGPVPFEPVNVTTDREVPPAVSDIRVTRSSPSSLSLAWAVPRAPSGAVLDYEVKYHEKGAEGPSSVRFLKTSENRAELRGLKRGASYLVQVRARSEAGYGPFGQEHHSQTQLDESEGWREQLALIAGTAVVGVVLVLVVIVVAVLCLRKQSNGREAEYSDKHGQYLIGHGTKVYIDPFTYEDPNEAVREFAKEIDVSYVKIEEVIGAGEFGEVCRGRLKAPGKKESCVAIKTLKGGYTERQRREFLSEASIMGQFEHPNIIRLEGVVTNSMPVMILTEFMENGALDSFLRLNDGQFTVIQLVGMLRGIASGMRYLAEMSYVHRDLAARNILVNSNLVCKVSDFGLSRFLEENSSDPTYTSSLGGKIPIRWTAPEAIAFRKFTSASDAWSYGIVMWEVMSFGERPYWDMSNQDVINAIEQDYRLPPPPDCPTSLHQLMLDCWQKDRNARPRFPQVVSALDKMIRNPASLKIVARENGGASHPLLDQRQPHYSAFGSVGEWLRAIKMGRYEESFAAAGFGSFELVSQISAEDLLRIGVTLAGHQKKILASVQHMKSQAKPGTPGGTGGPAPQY

[3] = system: ERCC2; assay: Kinobeads two-dose competition binding: ERCC2; design: species or system human; settings: read-out: Lestaurtinib Drugmatrix value, Gene Name ERCC2; target ERCC2; each column = one Lestaurtinib control replicate (batch_R1-R3)
[4] = molecular target: T3, ERN2 (Homo sapiens, UniProt Q76MJ5); assay: Kinobeads two-dose competition binding: ERN2; settings: read-out: Lestaurtinib Drugmatrix value, Gene Name ERN2
T3 construct: endogenous in cells
T3 sequence (Q76MJ5 35-926): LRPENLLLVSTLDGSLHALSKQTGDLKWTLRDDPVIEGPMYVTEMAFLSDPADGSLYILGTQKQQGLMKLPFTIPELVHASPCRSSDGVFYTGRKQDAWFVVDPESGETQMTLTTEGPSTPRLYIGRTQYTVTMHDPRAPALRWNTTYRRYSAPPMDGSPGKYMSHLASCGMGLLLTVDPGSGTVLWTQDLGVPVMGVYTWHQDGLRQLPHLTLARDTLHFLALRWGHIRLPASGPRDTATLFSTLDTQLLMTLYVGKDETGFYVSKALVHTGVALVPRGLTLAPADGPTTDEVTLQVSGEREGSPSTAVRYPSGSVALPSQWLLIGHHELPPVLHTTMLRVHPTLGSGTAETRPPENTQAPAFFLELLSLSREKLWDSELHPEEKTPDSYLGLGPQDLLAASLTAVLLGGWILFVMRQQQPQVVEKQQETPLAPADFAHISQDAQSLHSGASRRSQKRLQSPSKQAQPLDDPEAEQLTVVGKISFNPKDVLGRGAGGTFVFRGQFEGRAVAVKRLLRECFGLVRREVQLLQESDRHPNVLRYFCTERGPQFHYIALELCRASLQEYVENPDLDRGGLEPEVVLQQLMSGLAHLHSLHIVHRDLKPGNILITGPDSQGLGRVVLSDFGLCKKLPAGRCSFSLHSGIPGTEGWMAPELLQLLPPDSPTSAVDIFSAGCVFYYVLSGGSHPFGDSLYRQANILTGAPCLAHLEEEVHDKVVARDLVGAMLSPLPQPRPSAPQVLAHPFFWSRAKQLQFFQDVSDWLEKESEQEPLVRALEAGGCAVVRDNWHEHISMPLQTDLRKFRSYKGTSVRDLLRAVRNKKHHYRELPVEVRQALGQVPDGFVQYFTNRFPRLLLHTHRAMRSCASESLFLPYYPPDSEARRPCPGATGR

[5] = molecular target: T4, ULK3 (Homo sapiens, UniProt Q6PHR2); assay: Kinobeads two-dose competition binding: ULK3
T4 construct: endogenous in cells
T4 sequence (Q6PHR2 whole entry): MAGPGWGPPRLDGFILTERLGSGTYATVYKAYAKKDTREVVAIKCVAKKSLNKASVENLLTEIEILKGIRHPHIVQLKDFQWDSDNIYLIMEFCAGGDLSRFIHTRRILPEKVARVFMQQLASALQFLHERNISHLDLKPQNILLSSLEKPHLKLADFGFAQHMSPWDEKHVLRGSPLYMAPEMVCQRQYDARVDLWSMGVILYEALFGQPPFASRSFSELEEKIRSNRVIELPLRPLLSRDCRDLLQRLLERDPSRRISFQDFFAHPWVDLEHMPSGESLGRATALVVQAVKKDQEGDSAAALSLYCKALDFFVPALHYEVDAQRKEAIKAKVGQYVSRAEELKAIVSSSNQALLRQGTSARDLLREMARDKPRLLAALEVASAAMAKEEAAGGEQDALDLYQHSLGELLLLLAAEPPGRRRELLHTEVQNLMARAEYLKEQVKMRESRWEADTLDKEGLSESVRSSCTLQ

| SMILES | Relative Intensity 0.3nM ([1]; 0.3nM compound, DMSO = 1) | Relative Intensity 1nM ([1]; 1nM compound, DMSO = 1) | Relative Intensity 3nM ([1]; 3nM compound, DMSO = 1) | Relative Intensity 10nM ([1]; 10nM compound, DMSO = 1) | Relative Intensity 30nM ([1]; 30nM compound, DMSO = 1) | Relative Intensity 100nM ([1]; 100nM compound, DMSO = 1) | Relative Intensity 300nM ([1]; 300nM compound, DMSO = 1) | Relative Intensity 1000nM ([1]; 1000nM compound, DMSO = 1) | Kd ([1]; EC50 with Correction, doses in nM, read-out: apparent Kd) [nM] | EC50 ([1]; eight-dose curve fit, doses in nM) [nM] | potency estimated from few doses [2] | potency estimated from few doses [3] | potency estimated from few doses [4] [nM] | potency estimated from few doses ([5]; read-out: Lestaurtinib Drugmatrix value, Gene Name ULK3, repeated control pulldowns; each column = experiment id and replicate (Lestaurtinib_02339_R1 ... Lestaurtinib_03260_R3)) [nM] | potency estimated from few doses ([5]; read-out: Lestaurtinib Drugmatrix value, Gene Name ULK3; repeated control pulldowns; each column = experiment id and replicate (Lestaurtinib_02339_R1 ... Lestaurtinib_03260_R3)) [nM] |
| --- | --- | --- | --- | --- | --- | --- | --- | --- | --- | --- | --- | --- | --- | --- | --- |
| CCn1c(-c2nonc2N)nc2c(C#CC(C)(C)O)nc(OCCN)cc21 [GSK902056A] | 1.163 | 0.99 | 1.359 | 0.9582 | 0.9019 | 0.7347 | 0.3297 | 0 | 223 | 223 | – | – | – | – | – |
| C[C@]12O[C@H](C[C@]1(O)CO)n1c3ccccc3c3c4c(c5c6ccccc6n2c5c31)CNC4=O [Lestaurtinib] | – | – | – | – | – | – | – | – | – | – | 207 nM and 689 nM | 161 nM and 261 nM | 346 | 113 | 218 |
